The target in one data set is T1, human EP4 (Homo sapiens, UniProt P35408).
T1 construct: expressed in transfected cells; host or cells: HEK293 cells transduced with EP4 BacMam baculovirus
Put plainly: cAMP Gs functional assay (HTRF cAMP dynamic-2) in EP4-transfected HEK293 cells. The class given is cell-based. As to conditions: HEK293 cells transfected with EP4 BacMam virus. As for the experimental part:
Cloning, Baculovirus generation, large scale infection of HEK293 cells and membrane preparation: Human prostaglandin E2 receptor 4 (EP4) was cloned into pBacMam expression vector (GeneScript, UK). Transposition of EP4 DNA was performed using Invitrogen's Bac-to-Bac Baculovirus Expression Systems. P0 baculovirus was generated by transfecting SF9 Cells with bacmid DNA using Cellfectin II transfection reagent (ThermoFisher Scientific, UK). Following P0 generation P1 virus was then generated ready for large scale infection and membrane preparation. HEK293 cells were grown in DMEM (ThermoFisher Scientific, UK), supplemented with 10% heat inactivated fetal bovine serum (FBS). Cells were infected at a seeding density of 3.5 million cells/mL in 500 cm^3 flasks at 5% v/v EP4 Bacman. Expression was carried out over a 36 hour period at 37° C. with 5% CO2. The cells were removed using PBS and a cell scrapper. The cell culture was centrifuged at 2500 RPM for 10 mins at 4° C. The supernatant was then poured off and the pellet stored at −80° C. The pellet was defrosted and re-suspended in 15 mL of homogenising buffer (20 mM HEPES, 10 mM EDTA, pH 7.4). Then homogenised in mechanical homogeniser (VMR) for 10 seconds. The membrane was centrifuged in centrifuge tubes at 40,000 g for 15 mins at 4° C. The supernatant was poured away and re-suspended in 15 mL of homogenising buffer and homogenised for 20 seconds. The membrane was then centrifuged at 40,000 g for 45 mins at 4° C. The membrane was then re-suspended in 3 mL of storage buffer (20 mM HEPES, 0.1 mM EDTA, pH 7.4) mixing well. The resulting membranes were then stored at −80° C.
cAMP Gs Functional Assay: cAMP production following EP4 receptor activation was determined using the Homogeneous Time-Resolved Fluorescence (HTRF) cAMP dynamic-2 assay (Cisbio, France). HEK293 cells were transfected using a 0.5% EP4 Bacman virus for 36 hours, before dissociating the cells, and freezing at −150° C.
On the day of testing, increasing concentration of test compounds, alongside positive controls ([…] PGE2 (Tocris, Abingdon, UK)) and negative control (DMSO (Sigma-Aldrich, UK) were added to a ProxiPlate-384 Plus, White 384-shallow well Mircoplate, (PerkinElmer, USA) using the ECHO dispense.
Cells were defrosted in a water bath and resuspended in DMEM supplemented with 10% FBS before centrifuging at 1200 RPM for 5 mins to form a pellet. The pellet was resuspended in assay buffer (DMEM+0.5 mM IBMX (Tocris, Abingdon, UK)) to 0.5×10^6 cells/mL. Cell suspension, for a final assay concentration of 5000 cell/well was added using the multidrop to the pre-dispensed assay plate. The plate was then incubated at 37° C. for 30 mins, with 5% CO2. The cAMP production was determined as manufacturer's instructions, before plates were read on a PheraStar fluorescence plate reader (BMG LabTech, Germany).
On the technique in general: In TR-FRET formats the signal depends on donor and acceptor labels being close together.

Data set [1] is described as follows: Unidirectional Caco-2 cell permeability assay. In kind it is in vitro ADME. As to conditions: human, apical pH 6.5, basolateral pH 7.4, 1 hour, 37° C., n=2. As for the experimental part:
Caco-2 cells (ECACC) were seeded onto 24-well Transwell plates at 2×10^5 cells per well and used in confluent monolayers after a 21 day culture at 37° C. under 500 CO2. Test compounds were incubated at 10 μM, 0.2% DMSO final, n=2 in assay buffer (Hanks balanced salt solution supplemented with 25 mM HEPES, adjusted to pH 6.5). Hanks balanced salt solution supplemented with 25 mM HEPES, adjusted to pH 7.4 (0.2% DMSO final) was used for the basolateral chamber (as receiver).
Incubations were performed at 37° C., with samples removed from both donor and acceptor chambers at T=0 and 1 hour and compound analysed by mass spectrometry (LC-MS/MS) including an analytical internal standard ([…] carbamazepine).
Apparent permeability (Papp) values are shown in Table 3 and were determined from the relationship:
Where V is the volume of each Transwell compartment (apical 125 μL, basolateral 600 μL), and concentrations are the relative MS responses for compound (normalized to internal standard) in the donor chamber before incubation and acceptor chamber at the end of the incubation Area=area of cells exposed for drug transfer (0.33 cm^2).
Lucifer Yellow (LY) was added to the apical buffer in all wells to assess viability of the cell layer. As LY cannot freely permeate lipophilic barriers, a high degree of LY transport indicates poor integrity of the cell layer and wells with a LY Papp>10×10^−6 cm/s were rejected.
Compound recovery from the wells was determined from MS responses (normalized to internal standard) in donor and acceptor chambers at the end of incubation compared to response in the donor chamber pre-incubation.
On the technique in general: Caco-2 cells form a polarised layer with tight junctions and transporters.

One may read the Papp A→B as the apparent permeability from the apical to the basolateral side of a cell layer. High values mean ready permeation, low ones poor permeation.

Where only a bound is given, the exact number is not on record here.

T1 sequence (P35408 whole entry): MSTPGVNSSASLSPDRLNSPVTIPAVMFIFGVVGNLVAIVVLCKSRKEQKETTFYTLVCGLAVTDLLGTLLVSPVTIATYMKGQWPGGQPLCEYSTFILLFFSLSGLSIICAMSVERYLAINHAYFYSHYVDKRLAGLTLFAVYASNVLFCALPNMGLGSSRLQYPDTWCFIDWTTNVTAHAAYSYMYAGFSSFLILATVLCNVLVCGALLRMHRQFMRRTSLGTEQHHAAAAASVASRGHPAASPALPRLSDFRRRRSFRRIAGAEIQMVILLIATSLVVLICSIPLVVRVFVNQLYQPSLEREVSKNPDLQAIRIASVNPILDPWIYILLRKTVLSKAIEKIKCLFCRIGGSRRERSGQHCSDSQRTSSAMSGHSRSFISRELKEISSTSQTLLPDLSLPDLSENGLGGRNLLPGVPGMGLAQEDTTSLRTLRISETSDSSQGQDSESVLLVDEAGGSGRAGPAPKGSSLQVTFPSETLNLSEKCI

In the case of `Cc1cc(O)ccc1-c1cc(O)cc(CN2CCC[C@@H]2C(=O)N[C@@H](C)c2ccc(C(=O)O)c(O)c2)c1` [Example 35, 4-((S)-1-((R)-1-((4′,5-dihydroxy-2′-methyl-[1,1′-biphenyl]-3-yl)methyl)pyrrolidine-2-carboxamido)ethyl)-2-hydroxybenzoic acid], at human EP4 (30 min at 37° C., HTRF cAMP, read-out: cAMP human EP4 pEC50 (converted)), the EC50 is 0.0501 nM. Moreover, the cAMP human EP4 Emax on human EP4 (positive control PGE2) was 97%. Besides, the Papp A→B at 1 h, 10 μM in data set [1] is < 0.1 ×10⁻⁶ cm/s.

The values are drawn from patent US20260042745A1, “PYRROLIDINE-2-CARBOXAMIDE DERIVATIVES AS PROSTAGLANDIN E2 RECEPTOR 4 (EP4) AGONISTS FOR THE TREATMENT OF GASTROINTESTINAL AND PULMONARY DISEASES” (NXERA PHARMA UK LIMITED, priority 2022, published 2026).
